Measurements reported in patent US20210261512A1, “NOVEL COMPOUNDS” (INFLAZOME LIMITED, priority 2018, published 2021).
pIC50: −log10 of the molar value.

Molecular target: NLRP3 (Homo sapiens, UniProt Q96P20)
Experiment: THP-1 cells pyroptosis assay
Type: cell-based
Design: Seed THP-1 cells (25,000 cells/well) containing 1.0 μg/ml LPS; host or cells: THP-1
Conditions: LPS 1.0 μg/ml, nigericin 5 μM, resazurin readout, 10 μM top dose (Example 2: top dose of 30 μM)
Experimental: THP-1 cells (ATCC #TIB-202) were grown in RPMI containing L-glutamine (Gibco #11835) supplemented with imM sodium pyruvate (Sigma #S8636) and penicillin (100 units/ml)/streptomycin (0.1 mg/ml) (Sigma #P4333) in 10% Fetal Bovine Serum (FBS) (Sigma #F0804). The cells were routinely passaged and grown to confluency (˜10^6 cells/ml). On the day of the experiment, THP-1 cells were harvested and resuspended into RPMI medium (without FBS). The cells were then counted and viability (>90%) checked by Trypan blue (Sigma #T8154). Appropriate dilutions were made to give a concentration of 625,000 cells/ml. To this diluted cell solution was added LPS (Sigma #L4524) to give a 1 μg/ml Final Assay Concentration (FAC). 40 μl of the final preparation was aliquoted into each well of a 96-well plate. The plate thus prepared was used for compound screening.
The following method step-by-step assay was followed for compound screening. • 1. Seed THP-1 cells (25,000 cells/well) containing 1.0 μg/ml LPS in 40 μl of RPMI medium (without FBS) in 96-well, black walled, clear bottom cell culture plates coated with poly-D-lysine (VWR #734-0317) • 2. Add 5 μl compound (8 points four-fold dilution or 8 points half-log dilution, with 10 μM top dose, unless stated otherwise) or vehicle (DMSO 0.1% FAC) to the appropriate wells • 3. Incubate for 3 hrs at 37° C. and 5% CO2 • 4. Add 5 μl nigericin (Sigma #N7143) (FAC 5 μM) to all wells • 5. Incubate for 1 hr at 37° C. and 5% CO2 • 6. At the end of the incubation period, spin plates at 300×g for 3 mins and remove supernatant • 7. Then add 50 μl of resazurin (Sigma #R^7017) (FAC 100 μM resazurin in RPMI medium without FBS) and incubate plates for a further 1-2 hrs at 37° C. and 5% CO2 • 8. Plates were read in an Envision reader at Ex 560 nm and Em 590 nm • 9. IC50 data is fitted to a non-linear regression equation (log inhibitor vs response-variable slope 4-parameters)

NLRP3, sequence (Q96P20 whole entry): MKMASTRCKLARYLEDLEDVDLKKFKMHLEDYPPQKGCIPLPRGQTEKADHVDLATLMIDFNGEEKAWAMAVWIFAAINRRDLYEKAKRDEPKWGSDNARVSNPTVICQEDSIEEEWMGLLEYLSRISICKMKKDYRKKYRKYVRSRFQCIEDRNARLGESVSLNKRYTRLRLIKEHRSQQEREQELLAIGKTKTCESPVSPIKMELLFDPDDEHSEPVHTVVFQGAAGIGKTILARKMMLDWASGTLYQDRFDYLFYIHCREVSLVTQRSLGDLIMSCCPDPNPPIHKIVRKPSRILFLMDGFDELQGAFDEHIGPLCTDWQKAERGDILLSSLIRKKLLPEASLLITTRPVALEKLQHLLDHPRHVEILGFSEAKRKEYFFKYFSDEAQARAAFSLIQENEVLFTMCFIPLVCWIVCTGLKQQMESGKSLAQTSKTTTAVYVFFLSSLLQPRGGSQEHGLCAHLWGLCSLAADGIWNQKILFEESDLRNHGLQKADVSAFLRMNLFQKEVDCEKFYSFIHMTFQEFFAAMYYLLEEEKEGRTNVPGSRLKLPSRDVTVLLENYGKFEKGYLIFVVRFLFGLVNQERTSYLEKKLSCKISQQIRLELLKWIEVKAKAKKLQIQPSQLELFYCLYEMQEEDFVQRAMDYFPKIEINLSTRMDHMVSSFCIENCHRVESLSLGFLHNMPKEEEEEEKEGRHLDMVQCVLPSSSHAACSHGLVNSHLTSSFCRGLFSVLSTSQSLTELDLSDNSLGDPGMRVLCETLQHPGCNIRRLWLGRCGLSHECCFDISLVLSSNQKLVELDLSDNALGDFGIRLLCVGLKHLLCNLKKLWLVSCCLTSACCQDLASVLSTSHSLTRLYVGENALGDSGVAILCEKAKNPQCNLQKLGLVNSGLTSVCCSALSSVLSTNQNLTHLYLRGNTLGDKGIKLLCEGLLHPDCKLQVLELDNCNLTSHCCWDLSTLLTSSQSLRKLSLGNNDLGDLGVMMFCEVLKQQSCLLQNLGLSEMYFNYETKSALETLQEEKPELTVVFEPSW

Structure (SMILES)	pIC50
COc1cc(-c2ccc3c(c2Cc2nnc(S(=O)(=O)c4ccn(C(C)C)n4)[nH]2)CCC3)ccn1 [Example 32, 4-(4-((5-((1-isopropyl-H-pyrazol-3-yl)sulfonyl)-4H-1,2,4-triazol-3-yl)methyl)-2,3-dihydro-1H-inden-5-yl)-2-methoxypyridine]	≥ 5.30
O=S(=O)(NCc1cccnc1)c1nnc(Nc2c3c(cc4c2CCC4)CCC3)[nH]1 [Example 97, 5-((1,2,3,5,6,7-hexahydro-s-indacen-4-yl)amino)-N-(pyridin-3-ylmethyl)-4H-1,2,4-triazole-3-sulfonamide]	≥ 5.30
CN(C)CCn1cc(S(=O)(=O)c2nnc(Nc3c4c(cc5c3CCC5)CCC4)[nH]2)cn1 [Example 350, 5-((1-(2-(dimethylamino)ethyl)-1H-pyrazol-4-yl)sulfonyl)-N-(1,2,3,5,6,7-hexahydro-s-indacen-4-yl)-4H-1,2,4-triazol-3-amine]	≥ 6.00
O=S(=O)(NCCN1CCOCC1)c1nnc(Nc2c3c(cc4c2CCC4)CCC3)[nH]1 [Example 129, 5-((1,2,3,5,6,7-hexahydro-s-indacen-4-yl)amino)-N-(2-morpholinoethyl)-4H-1,2,4-triazole-3-sulfonamide]	≥ 5.30
CS(=O)(=O)c1nnc(Nc2c3c(c(C#N)c4c2CCC4)CCC3)[nH]1 [Example 322, 8-((5-(methylsulfonyl)-4H-1,2,4-triazol-3-yl)amino)-1,2,3,5,6,7-hexahydro-s-indacene-4-carbonitrile]	≥ 5.30
O=C1CCC(CNS(=O)(=O)c2nnc(Nc3c4c(cc5c3CCC5)CCC4)[nH]2)N1 (stereo not shown) [Example 121, 5-((1,2,3,5,6,7-hexahydro-s-indacen-4-yl)amino)-N-((5-oxopyrrolidin-2-yl)methyl)-4H-1,2,4-triazole-3-sulfonamide]	≥ 5.00
COc1cc(-c2ccc3c(c2Nc2nnc(S(=O)(=O)c4ccccc4)[nH]2)CCC3)ccn1 [Example 372, N-(5-(2-methoxypyridin-4-yl)-2,3-dihydro-1H-inden-4-yl)-5-(phenylsulfonyl)-1H-1,2,4-triazol-3-amine]	≥ 5.30
COc1cc(-c2cccc(C(C)C)c2Oc2nnc(S(=O)(=O)N3CCC(N(C)C)CC3)[nH]2)ccn1 [Example 243, 1-((5-(2-isopropyl-6-(2-methoxypyridin-4-yl)phenoxy)-4H-1,2,4-triazol-3-yl)sulfonyl)-N,N-dimethylpiperidin-4-amine]	≥ 5.30
CC(C)c1cc(F)cc(C(C)C)c1Nc1nnc(S(=O)(=O)c2ccccc2)[nH]1 [Example 42, N-(4-fluoro-2,6-diisopropylphenyl)-3-(phenylsulfonyl)-1H-1,2,4-triazol-5-amine]	≥ 5.00
Cc1noc(CS(=O)(=O)c2nnc(Nc3c4c(cc5c3CCC5)CCC4)[nH]2)n1 [Example 70, N-(1,2,3,5,6,7-hexahydro-s-indacen-4-yl)-3-(((3-methyl-1,2,4-oxadiazol-5-yl)methyl)sulfonyl)-1H-1,2,4-triazol-5-amine]	≥ 5.30
CN1CCC(COc2cc(-c3ccc4c(c3Nc3nnc(S(C)(=O)=O)[nH]3)CCC4)ccn2)C1 (stereo not shown) [Example 358, N-(5-(2-((1-methylpyrrolidin-3-yl)methoxy)pyridin-4-yl)-2,3-dihydro-1H-inden-4-yl)-5-(methylsulfonyl)-4H-1,2,4-triazol-3-amine]	≥ 5.00
CN(C)CCN(C)CCCS(=O)(=O)c1nnc(Nc2c3c(cc4c2CCC4)CCC3)[nH]1 [Example 52, N^1-(3-((5-((1,2,3,5,6,7-hexahydro-s-indacen-4-yl)amino)-4H-1,2,4-triazol-3-yl)sulfonyl)propyl)-N^1,N^2,N^2-trimethylethane-1,2-diamine]	≥ 5.30
O=S(=O)(NCc1ccccc1)c1nnc(Nc2c3c(cc4c2CCC4)CCC3)[nH]1 [Example 86, N-benzyl-5-((1,2,3,5,6,7-hexahydro-s-indacen-4-yl)amino)-4H-1,2,4-triazole-3-sulfonamide]	≥ 5.30
O=S(=O)(c1nnc(Nc2c3c(cc4c2CCC4)CCC3)[nH]1)N1CCC(N2CCOCC2)C1 (stereo not shown) [Example 127, N-(1,2,3,5,6,7-hexahydro-s-indacen-4-yl)-5-((3-morpholinopyrrolidin-1-yl)sulfonyl)-4H-1,2,4-triazol-3-amine]	≥ 5.30

Now from value to compound:

pIC50	Structure (SMILES)
≥ 5.30	COC1(c2cc(S(=O)(=O)c3nnc(Nc4c5c(cc6c4CCC6)CCC5)[nH]3)nn2C(C)C)COC1 [Example 14, N-(1,2,3,5,6,7-hexahydro-s-indacen-4-yl)-5-((1-isopropyl-5-(3-methoxyoxetan-3-yl)-1H-pyrazol-3-yl)sulfonyl)-4H-1,2,4-triazol-3-amine]
≥ 5.00	CC(C)c1cc(F)cc(-c2ccncc2)c1Nc1nnc(S(=O)(=O)c2ccccc2)[nH]1 [Example 191, N-(4-fluoro-2-isopropyl-6-(pyridin-4-yl)phenyl)-5-(phenylsulfonyl)-4H-1,2,4-triazol-3-amine]
≥ 5.30	Cc1cccc(S(=O)(=O)c2nnc(Nc3c4c(cc5c3CCC5)CCC4)[nH]2)c1 [Example 174, N-(1,2,3,5,6,7-hexahydro-s-indacen-4-yl)-5-(m-tolylsulfonyl)-4H-1,2,4-triazol-3-amine]
≥ 5.30	O=S(=O)(c1nnc(Nc2c3c(cc4c2CCC4)CCC3)[nH]1)N1CCC2(CCN(C3CC3)C2)CC1 [Example 244, 5-((2-cyclopropyl-2,8-diazaspiro[4.5]decan-8-yl)sulfonyl)-N-(1,2,3,5,6,7-hexahydro-s-indacen-4-yl)-4H-1,2,4-triazol-3-amine]
≥ 6.30	O=S(=O)(c1ccn(C2CC2)n1)c1nnc(Nc2c3c(cc4c2CCC4)CCC3)[nH]1 [Example 354, 5-((1-cyclopropyl-1H-pyrazol-3-yl)sulfonyl)-N-(1,2,3,5,6,7-hexahydro-s-indacen-4-yl)-4H-1,2,4-triazol-3-amine]
≥ 5.00	Cc1ccc(C(C)C)c(Nc2nnc(S(=O)(=O)N3CCC(N(C)C)CC3)[nH]2)c1 [Example 206, 1-((5-((2-isopropyl-5-methylphenyl)amino)-4H-1,2,4-triazol-3-yl)sulfonyl)-N,N-dimethylpiperidin-4-amine]
≥ 5.30	CN1CCN(CCNS(=O)(=O)c2nnc(Nc3c4c(cc5c3CCC5)CCC4)[nH]2)CC1 [Example 131, 5-((1,2,3,5,6,7-hexahydro-s-indacen-4-yl)amino)-N-(2-(4-methylpiperazin-1-yl)ethyl)-4H-1,2,4-triazole-3-sulfonamide]
≥ 5.30	Cn1ncc(S(=O)(=O)c2nnc(Nc3c4c(cc5c3CCC5)CCC4)[nH]2)c1C#N [Example 355, 4-((5-((1,2,3,5,6,7-hexahydro-s-indacen-4-yl)amino)-4H-1,2,4-triazol-3-yl)sulfonyl)-1-methyl-1H-pyrazole-5-carbonitrile]
≥ 5.30	O=S(=O)(c1ccc(F)cc1)c1nnc(Nc2c3c(cc4c2CCC4)CCC3)[nH]1 [Example 181, 5-((4-fluorophenyl)sulfonyl)-N-(1,2,3,5,6,7-hexahydro-s-indacen-4-yl)-4H-1,2,4-triazol-3-amine]
≥ 5.30	CN1CCCC(CS(=O)(=O)c2nnc(Nc3c4c(cc5c3CCC5)CCC4)[nH]2)C1 (stereo not shown) [Example 58, N-(1,2,3,5,6,7-hexahydro-s-indacen-4-yl)-3-(((1-methylpiperidin-3-yl)methyl)sulfonyl)-1H-1,2,4-triazol-5-amine]
≥ 5.30	O=S(=O)(c1nnc(Nc2c3c(cc4c2CCC4)CCC3)[nH]1)N1CC2(CCN(CC(F)(F)F)C2)C1 [Example 263, N-(1,2,3,5,6,7-hexahydro-s-indacen-4-yl)-5-((6-(2,2,2-trifluoroethyl)-2,6-diazaspiro[3.4]octan-2-yl)sulfonyl)-4H-1,2,4-triazol-3-amine]
≥ 5.00	COCCCS(=O)(=O)c1nnc(Nc2c3c(cc4c2CCC4)CCC3)[nH]1 [Example 65, N-(1,2,3,5,6,7-hexahydro-s-indacen-4-yl)-3-((3-methoxypropyl)sulfonyl)-1H-1,2,4-triazol-5-amine]
≥ 5.30	O=S(=O)(c1nnc(Nc2c3c(cc4c2CCC4)CCC3)[nH]1)N1CC(c2ccccn2)C1 [Example 285, N-(1,2,3,5,6,7-hexahydro-s-indacen-4-yl)-5-((3-(pyridin-2-yl)azetidin-1-yl)sulfonyl)-4H-1,2,4-triazol-3-amine]
≥ 6.00	CC(C)(O)c1cccc(S(=O)(=O)c2nnc(Nc3c4c(cc5c3CCC5)CCC4)[nH]2)c1 [Example 172, 2-(3-((5-((1,2,3,5,6,7-hexahydro-s-indacen-4-yl)amino)-4H-1,2,4-triazol-3-yl)sulfonyl)phenyl)propan-2-ol]
